Assay results from patent US20260062376A1, “SQUARAMIDE DERIVATIVES AS CB1 ALLOSTERIC MODULATORS” (RESEARCH TRIANGLE INSTITUTE, priority 2022, published 2026).
One block for each compound: values may come before it.

Columns and labels:
[1] = system: rats; details: 10 mg/kg; cited from earlier work
[2] = in vivo; cited from earlier work
[3] = molecular target: T1, Human CB1 (Homo sapiens (Human), UniProt P21554); test: Human CB1 HEK293 membrane [35S]GTPγS binding assay; format: biochemical; details: HEK293 membranes expressing human CB1, in presence of CP55,940, mean ± SEM
Protocol: Non-specific binding was determined by adding 30 μM unlabeled GTPγS.
(§1) Data Analysis: For calcium mobilization experiments, data were fit to a three-parameter logistic curve to generate IC50 values (GraphPad Prism 6.0, Graphpad Software, San Diego, California, United States of America). For [^35S]GTPγS experiments, data were normalized to maximal CP55,940 (100 nM) stimulation in the absence of test compound (i.e., vehicle=100%).

[4] = molecular target: T1, Human CB1; test: Calcium mobilization assay (antagonist mode vs CP55,940); format: cell-based; details: CHO-RD-HGA16 cells stably expressing human CB1; against EC50 concentration of CP55,940; mean ± SEM, at least three experiments
Protocol: Calcium Mobilization Assay: CHO-RD-HGA16 cells (Molecular Devices, San Jose, California, United States of America) stably expressing the human CB1 receptor were plated into 96-well black-walled assay plates at 25,000 cells/well in 100 μL of Ham's F12 (supplemented with 10% fetal bovine serum, 100 units of penicillin/streptomycin, and 100 μg/mL Normocin) and incubated overnight at 37° C., 5% CO2. Calcium 5 dye (Molecular Devices, San Jose, California, United States of America) was reconstituted according to the manufacturer's instructions. The reconstituted dye was diluted 1:40 in prewarmed (37° C.) assay buffer (lx HBSS, 20 mM HEPES, 2.5 mM probenecid, pH 7.4 at 37° C.). Growth medium was removed, and the cells were gently washed with 100 μL of prewarmed (37° C.) assay buffer. […] After the pretreatment incubation period, the plate was read with a FLIPR Tetra (Molecular Devices, San Jose, California, United States of America). […] Relative fluorescence units (RFU) were plotted against the log of compound concentrations. […] Test compound RFUs were compared to the CP55,940 Emax RFUs to generate % Emax values. For the CB2 agonist and antagonist assays, the same procedures were followed except that stable human CB2—CHO-RD-HGA16 cells were used.
as §1

[5] = molecular target: Mouse CB1 (Mus musculus (Mouse), UniProt P47746); test: Mouse CB1 [35S]GTPγS binding assay (ICR mouse cerebellum membranes); format: biochemical; details: in presence of CP55,940, mean ± SEM
Protocol: [^35S]GTPγS Binding Assay: For receptor signaling, membranes (10 μg protein) from either ICR mouse cerebellum mice (6-8 weeks old; Enviga International, Indianapolis, Indiana, United States of America) or HEK cells stably expressing CB1 receptor were preincubated in assay buffer for 10 min with 3 units/ml adenosine deaminase then incubated for 60 min at 30° C. with 30 μM GDP and 0.1 nM [^35S]GTPγS (Perkin Elmer Life Sciences, Boston, Massachusetts, United States of America). Non-specific binding was determined by adding 30 μM unlabeled GTPγS.
as §1

[6] = Kinetic solubility assessment; format: physicochemical; details: phosphate buffer solution, 2 hours at room temperature, target 400 μM
Protocol: The solution was agitated on a VX-2500 multi-tube vortexer (VWR International, Radnor, Pennsylvania, United States of America) for 2 hours at room temperature. Following agitation, the sample was filtrated on a glass-fiber filter (1 μm) and the eluate was diluted 400-fold with a mixture of acetonitrile: water (1:1). On each experimental occasion, nicardipine and imipramine were assessed as reference compounds for low and high solubility, respectively. All samples were assessed in triplicate and analyzed by LC-MS/MS using electrospray ionization against standards prepared in the same matrix.

[7] = system: rats; test: Locomotion in rats; format: in vivo, rat; details: 5.6 mg/kg i.p.
[8] = Metabolic stability in rat liver microsomes; format: in vitro ADME; details: for microsomal CLint / half-life: pH 7.4, 0.5 mg/mL protein; for microsomal CLint: read-out: Rat Liver microsome Clearance; for half-life: read-out: Rat Liver microsome T1/2
Protocol: Metabolic stability assessment: Compounds were incubated with rat liver microsomes at 37° C. for a total of 45 minutes. The reaction was performed at pH 7.4 in 100 mM potassium phosphate buffer containing 0.5 mg/mL of rat liver microsomal protein. Phase I metabolism was assessed by adding NADPH to a final concentration of 1 mM and collecting samples at time points 0, 5, 15, 30 and 45 minutes. All collected samples were quenched 1:1 with ice-cold stop solution (1 μM labetalol and 1 μM glyburide in acetonitrile) and centrifuged to remove precipitated protein. Resulting supernatants were further diluted 1:4 with acetonitrile:water (1:1). Samples were analyzed by LC/MS/MS and calculations for half-life, and in-vitro clearance were accomplished using Microsoft Excel (2007).

[9] = Plasma protein binding; format: in vitro ADME
[10] = system: MDCK-mdr1 cells; test: Bidirectional MDCK-MDR1 permeability assay; format: in vitro ADME
Protocol: Permeability Assessment. Bidirectional MDCK-MDR1 permeability assay was performed by Paraza Pharma Inc. (Montreal, Canada). MDCK-mdr1 cells at passage 5 were seeded onto permeable polycarbonate supports in 12-well Costar Transwell plates and allowed to grow and differentiate for 3 days. On day 3, culture medium (DMEM supplemented with 10% FBS) was removed from both sides of the transwell inserts and cells were rinsed with warm HBSS. After the rinse step, the chambers were filled with warm transport buffer (HBSS containing 10 mM HEPES, 0.25% BSA, pH 7.4) and the plates were incubated at 37° C. for 30 min prior to TEER (Trans Epithelial Electric Resistance) measurements.
The buffer in the donor chamber (apical side for A-to-B assay, basolateral side for B-to-A assay) was removed and replaced with the working solution (10 μM test article in transport buffer). The plates were then placed at 37° C. under light agitation. At designated time points (30, 60 and 90 min), an aliquot of transport buffer from the receiver chamber was removed and replenished with fresh transport buffer. Samples were quenched with ice-cold ACN containing internal standard and then centrifuged to pellet protein. Resulting supernatants are further diluted with 50/50 ACN/H2O (H2O only for Atenolol) and submitted for LC-MS/MS analysis. Reported apparent permeability (Papp) values were calculated from single determination. Atenolol and propranolol were tested as low and moderate permeability references.
The apparent permeability (Papp, measured in cm/s) of a compound is determined according to the following formula from two independent experiments in duplicate: […]
where dQ/dt is the net rate of appearance in the receiver compartment; A is the area of the Transwell measured in cm^2 (1.12 cm^2); Ci is the initial concentration of compound added to the donor chamber; and 60 is the conversion factor for minute to second.

[11] = system: rats; details: cited from earlier work

Sequence of Mouse CB1 (P47746 whole entry): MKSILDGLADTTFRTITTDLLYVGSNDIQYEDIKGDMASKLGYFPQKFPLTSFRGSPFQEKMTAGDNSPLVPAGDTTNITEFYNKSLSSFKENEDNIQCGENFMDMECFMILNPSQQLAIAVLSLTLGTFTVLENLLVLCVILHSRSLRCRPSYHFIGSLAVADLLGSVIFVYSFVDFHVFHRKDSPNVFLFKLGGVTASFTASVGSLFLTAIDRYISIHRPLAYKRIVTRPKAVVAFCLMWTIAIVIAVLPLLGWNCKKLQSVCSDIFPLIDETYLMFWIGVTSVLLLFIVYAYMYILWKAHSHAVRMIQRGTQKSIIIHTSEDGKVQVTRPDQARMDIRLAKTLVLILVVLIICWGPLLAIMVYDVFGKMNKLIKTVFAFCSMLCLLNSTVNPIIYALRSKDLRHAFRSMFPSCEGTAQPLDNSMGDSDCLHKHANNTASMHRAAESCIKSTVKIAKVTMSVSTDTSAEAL
T1 sequence (P21554 whole entry): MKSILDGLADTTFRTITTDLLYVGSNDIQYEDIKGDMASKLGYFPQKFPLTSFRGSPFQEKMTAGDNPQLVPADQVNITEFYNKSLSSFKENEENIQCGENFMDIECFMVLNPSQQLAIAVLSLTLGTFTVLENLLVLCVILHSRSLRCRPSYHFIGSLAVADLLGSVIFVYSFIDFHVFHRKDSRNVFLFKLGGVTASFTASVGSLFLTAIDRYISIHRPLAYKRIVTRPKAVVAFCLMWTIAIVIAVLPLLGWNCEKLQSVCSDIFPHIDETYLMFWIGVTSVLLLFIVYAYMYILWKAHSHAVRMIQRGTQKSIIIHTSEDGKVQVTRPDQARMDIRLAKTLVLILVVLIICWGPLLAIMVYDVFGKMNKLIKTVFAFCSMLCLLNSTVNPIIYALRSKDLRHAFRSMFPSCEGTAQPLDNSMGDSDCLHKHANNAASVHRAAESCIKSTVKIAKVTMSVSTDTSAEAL

SMILES: O=C(NCCc1cccc(Cl)c1)Nc1ccc(Cl)cc1 [RTICBM-189]
Drug-induced reinstatement of cocaine seeking in rats [1]: attenuates drug-induced restatement of cocaine seeking

SMILES: N#Cc1ccc(NC(=O)Nc2cccc(-c3cccc(N4CCCC4)n3)c2)cc1 [RTICBM-28]
THC's potency in drug discrimination [2]: reduces THC's potency in drug discrimination

SMILES: CC(=O)c1ccc(CCNc2c(Nc3ccc(Cl)cc3)c(=O)c2=O)cc1 [Compound 40, 3-{[2-(A-acetylphenyl)ethyl]amino}-4-[(4-chlorophenyl)amino]cyclobut-3-ene-1,2-dione]
Human CB1 HEK293 membrane [35S]GTPγS binding assay pIC50 ± SEM [3]: 6.77 ± 0.04
IC50 [4]: 0.35 ± 0.01 µM
Mouse CB1 [35S]GTPγS binding assay pIC50 ± SEM [5]: 6.70 ± 0.09

Human CB1 HEK293 membrane [35S]GTPγS binding assay pIC50 ± SEM [3]: 6.84 ± 0.08
IC50 [4]: 0.362 ± 0.03 µM
Mouse CB1 [35S]GTPγS binding assay pIC50 ± SEM [5]: 6.61 ± 0.19
SMILES: O=c1c(NCCc2ccc(F)cc2F)c(Nc2ccc(Cl)cc2)c1=O [Compound 47, 3-[(4-Chlorophenyl)amino]-4-{[2-(2,4-difluorophenyl)ethyl]amino}cyclobut-3-ene-1,2-dione]

SMILES: O=c1c(NCCc2cccc(Cl)c2)c(Nc2ccc(Cl)cc2)c1=O [Compound 7, 3-[(4-Chlorophenyl)amino]-4-{[2-(3-chlorophenyl)ethyl]amino}cyclobut-3-ene-1,2-dione]
solubility kinetic at 2 h [6]: <1 µM
Effect on locomotion [7]: without affecting locomotion
Effect on locomotion ([7]; listed as Compound 6): did not affect locomotion
microsomal CLint ([8]; NADPH, 37° C.): 34.7 µL/min/mg
half-life ([8]; NADPH, 37° C.): 40 min
Metabolic stability in rat liver microsomes compared with PSNCBAM-1 ([8]; versus PSNCBAM-1): better metabolic stability
% Plasma Protein Bound [9]: >99.74%
Efflux ratio BA/AB ([10]; MDCK-MDR1): 2.1
Papp A to B (x10^-6 cm/s) ([10]; MDCK-MDR1, 10 μM, apical to basolateral): 3.1 x10^-6 cm/s
Papp B to A (x10^-6 cm/s) ([10]; MDCK-MDR1, 10 μM, basolateral to apical): 6.4 x10^-6 cm/s
IC50 [4]: 0.13 ± 0.012 µM

solubility kinetic at 2 h ([6]; aqueous buffer, kinetic from dmso stock): < 1 µM
IC50 ([3]; read-out: Human CB1 HEK293 membrane [35S]GTPγS binding assay pIC50 ± SEM (converted)): 0.501 µM
microsomal CLint ([8]; NADPH, 37° C.): 59.6 µL/min/mg
half-life ([8]; NADPH, 37° C.): 23.7 min
% Plasma Protein Bound [9]: 99%
IC50 [4]: 0.575 ± 0.1 µM
IC50 ([5]; read-out: Mouse CB1 [35S]GTPγS binding assay pIC50 ± SEM (converted)): 0.11 µM
SMILES: O=c1c(Nc2ccc(Cl)cc2)c(Nc2cccc(-c3ccc(F)cc3)c2)c1=O [Compound 33, 3-[(4-Chlorophenyl)amino]-4-[(4′-fluorobiphenyl-3-yl)amino]cyclobut-3-ene-1,2-dione]

SMILES: O=C(Nc1ccc(Cl)cc1)Nc1cccc(-c2cccc(N3CCCC3)n2)c1 [PSNCBAM-1, reference compound]
Food intake and body weight in rats [11]: reduces food intake and body weight
Rat Liver microsome T1/2 ([8]; 0.5 mg/mL protein, NADPH, 37° C.): 13 min
